Measured values published in US20260217698A1 (BEYANG THERAPEUTICS CO., LTD., priority 2022, published 2026).
Values after ≈ are worked out from the molar mass of the structure shown.

Columns and labels:
[1] = biological target: T1, VEGFR1 (Homo sapiens, UniProt P17948); experiment: Kinase inhibition, Mobility Shift Assay/IMAP, VEGFR1; assay type: biochemical
T1 construct: purchased Invitrogen PR6731B
Outline: (§1)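 Substrate conversion (phosphorylated vs non-phosphorylated) read by mobility shift on Caliper EZ Reader II and converted to % inhibition relative to no-enzyme and DMSO controls. IC50 fitted from % inhibition versus log compound concentration.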

[2] = biological target: T2, VEGFR3 (Homo sapiens, UniProt P35916); experiment: Kinase inhibition, Mobility Shift Assay/IMAP, VEGFR3; assay type: biochemical
T2 construct: purchased Invitrogen PV4129
Outline: as §1

[3] = biological target: T3, TIE2 (Homo sapiens, UniProt Q02763); experiment: Kinase inhibition, Mobility Shift Assay/IMAP, TIE2; assay type: biochemical
T3 construct: purchased BPS 40270
Outline: as §1

[4] = biological target: T4, VEGFR2 (Homo sapiens, UniProt P35968); experiment: Kinase inhibition, Mobility Shift Assay/IMAP, VEGFR2; assay type: biochemical; design: purchased Carna 08-191
Outline: as §1
Target sequence in this assay (P35968 790-1356 limits assumed): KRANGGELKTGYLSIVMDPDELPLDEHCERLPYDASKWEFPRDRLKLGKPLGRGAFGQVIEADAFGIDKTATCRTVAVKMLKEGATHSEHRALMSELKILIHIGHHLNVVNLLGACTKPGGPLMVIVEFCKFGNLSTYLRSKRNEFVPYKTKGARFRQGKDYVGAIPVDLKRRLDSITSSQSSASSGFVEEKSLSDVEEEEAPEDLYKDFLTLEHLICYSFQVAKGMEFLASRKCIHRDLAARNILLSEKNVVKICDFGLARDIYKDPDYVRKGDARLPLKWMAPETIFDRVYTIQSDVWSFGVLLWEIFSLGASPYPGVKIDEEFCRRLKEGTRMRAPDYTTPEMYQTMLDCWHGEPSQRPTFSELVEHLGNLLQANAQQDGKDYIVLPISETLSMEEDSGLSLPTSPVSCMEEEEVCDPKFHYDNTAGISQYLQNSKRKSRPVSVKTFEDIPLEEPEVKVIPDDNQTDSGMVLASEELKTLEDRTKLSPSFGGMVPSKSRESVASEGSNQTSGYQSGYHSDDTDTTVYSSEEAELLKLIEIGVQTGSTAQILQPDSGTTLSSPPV

[5] = biological target: T4, VEGFR2; experiment: Inhibition of VEGF-induced VEGFR2 autophosphorylation (pVEGFR2) in HUVEC cells, ELISA; assay type: cell-based; design: endogenous in cells; host or cells: HUVEC; conditions: 50 ng/mL human VEGF, compound 1 h
Excerpt: Vascular endothelial growth factor receptor 2 (VEGFR2) is a primary receptor for VEGF-induced endothelial cell signaling. After ligand binding, VEGFR2 is autophosphorylated and activated. The main function of signaling from VEGFR2 is to induce vascularization during development and after tissue injury, and to bypass blocked blood vessels. Pathologically, VEGF and VEGFR2 are involved in tumor angiogenesis and vascular leakage. They are considered to be main participants in many different cancers and ocular diseases that accompany pathological neovascularization. This assay measured the ability of the compounds to inhibit VEGF-induced VEGFR2 autophosphorylation (pVEGFR2) in HUVEC cells by using ELISA.
Culture cells in a cell culture flask to reach a fusion degree of 60%-80% before cell inoculation. Dilute the cell suspension to […] with a pre-warmed complete medium. Add 80 μL of the cell suspension to all wells of a 96-well cell plate (Corning-3599); and incubate the plate overnight at 37° C. in the presence of 5% CO2. Dissolve the compound powder to 10 mM with DMSO and store it in a nitrogen cabinet. Compound dilution plate: Add a reference compound Ponatinib or a compound to be tested to a 96 V-well plate (Axygen-WIPP 2280) at concentrations achieved as follows: performing 3-fold gradient dilution starting from 5 mM (5 μL of 10 mM compound solution plus 5 μL of DMSO) for a total of 8 concentration points. […] Transfer 20 μL of the diluted compound from the intermediate plate to a cell plate. Then, incubate the cell plate for 1 h at 37° C. in the presence of 5% CO2. After the compound was treated for 1 h, add 25 μL of 250 ng/ml human VEGF at a final concentration of 50 ng/mL to a 96-well plate; and incubate the plate for 5 min at 37° C. in the presence of 5% CO2, centrifuge the plate for 10 min at 3,000 rpm, remove the medium and wash the cells once with 300 μL of pre-chilled DPBS per well. Then, centrifuge the plate for 10 min at 4,000 rpm, remove DPBS, and add 110 μL of pre-chilled 1× cell lysis buffer per well to the 96-well plate. Shake the plate for 40 min at 4° C. Then, freeze the plate in a refrigerator at −80° C. On the next day, remove the plate from the refrigerator at −80° C., thaw the plate, centrifuge the plate for 10 min at 3500 rpm, and add 100 μL of the supernatant per well to an ELISA plate. Seal the plate and incubate it for 2 h at 37° C. Wash the wells 4 times with 1× wash buffer. Add 100 μL of recombinant detection antibody per well. Seal the plate, incubate the plate for 1 h at 37° C., and repeat the step of plate washing. Add 100 μL of secondary antibody per well. Seal the plate, incubate the plate for 30 min at 37° C., and repeat the step of plate washing. Add 100 μL of TMB (protected from light) per well. Seal the plate, incubate the plate for 30 min at 37° C., and add 100 μL of the stop solution per well. Gently shake for 30 sec, measure the absorbance with a SpectraMax® 340 PC 384 Absorbance Microplate Reader within 30 min, and read an optical density value at 450 nm. Conduct data analysis using XL Fit software:
Conduct curve fitting using the 4 Parameter Logistic Model or Sigmoidal Dose-Response Model to obtain IC50 values.
X indicates the log value of compound concentration, Y indicates the inhibition rate (% inhibition), Top indicates the readout of the negative control wells, and Bottom indicates the readout of the positive control well.
Target sequence in this assay (P35968 20-1356): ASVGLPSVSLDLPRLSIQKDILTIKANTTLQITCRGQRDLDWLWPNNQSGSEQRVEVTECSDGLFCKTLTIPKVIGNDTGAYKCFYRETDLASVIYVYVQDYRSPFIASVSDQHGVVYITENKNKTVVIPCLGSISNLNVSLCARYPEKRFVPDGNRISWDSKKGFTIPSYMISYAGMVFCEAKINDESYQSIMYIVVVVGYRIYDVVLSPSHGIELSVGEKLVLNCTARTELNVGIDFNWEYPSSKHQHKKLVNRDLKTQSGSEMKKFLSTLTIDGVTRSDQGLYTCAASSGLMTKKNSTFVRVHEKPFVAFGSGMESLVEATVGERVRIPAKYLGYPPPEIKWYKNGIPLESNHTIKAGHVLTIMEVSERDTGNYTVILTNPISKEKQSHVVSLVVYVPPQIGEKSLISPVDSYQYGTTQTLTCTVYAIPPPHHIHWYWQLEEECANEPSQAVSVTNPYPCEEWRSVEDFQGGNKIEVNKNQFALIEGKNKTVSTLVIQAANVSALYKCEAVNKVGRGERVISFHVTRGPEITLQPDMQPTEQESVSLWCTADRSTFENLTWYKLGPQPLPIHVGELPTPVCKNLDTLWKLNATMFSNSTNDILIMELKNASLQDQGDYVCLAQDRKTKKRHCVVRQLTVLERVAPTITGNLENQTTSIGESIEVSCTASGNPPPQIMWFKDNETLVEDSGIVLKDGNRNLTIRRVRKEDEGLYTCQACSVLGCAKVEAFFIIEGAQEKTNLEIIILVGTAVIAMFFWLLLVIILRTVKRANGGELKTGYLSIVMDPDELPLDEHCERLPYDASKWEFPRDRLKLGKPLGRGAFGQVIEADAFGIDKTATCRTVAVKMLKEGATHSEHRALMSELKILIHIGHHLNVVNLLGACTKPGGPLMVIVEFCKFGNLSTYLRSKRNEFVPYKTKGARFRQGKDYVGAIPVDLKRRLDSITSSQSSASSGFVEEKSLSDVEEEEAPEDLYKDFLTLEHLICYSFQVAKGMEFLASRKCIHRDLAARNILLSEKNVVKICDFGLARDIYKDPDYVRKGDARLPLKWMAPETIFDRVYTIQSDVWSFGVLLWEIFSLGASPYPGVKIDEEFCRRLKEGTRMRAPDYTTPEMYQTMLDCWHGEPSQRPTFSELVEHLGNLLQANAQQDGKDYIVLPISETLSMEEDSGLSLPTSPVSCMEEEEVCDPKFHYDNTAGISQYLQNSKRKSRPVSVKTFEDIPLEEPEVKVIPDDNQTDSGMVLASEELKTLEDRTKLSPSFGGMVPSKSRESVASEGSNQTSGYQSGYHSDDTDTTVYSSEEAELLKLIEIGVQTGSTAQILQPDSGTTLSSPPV

[6] = Solubility test in buffer, LC-MS; assay type: physicochemical; conditions: aqueous buffer, thermodynamic from solid, room temperature, shaking 8 h, pH not given (method: pH 2.0, 6.5, 7.4)
Outline: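 Compound at 2 mg/mL in buffers of pH 2.0, 6.5 and 7.4, sonicated, shaken 8 h at room temperature, then centrifuged at 13,000 rpm. Supernatant quantified by LC-MS against a 3–5 point calibration.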

T2 sequence (P35916 25-1363): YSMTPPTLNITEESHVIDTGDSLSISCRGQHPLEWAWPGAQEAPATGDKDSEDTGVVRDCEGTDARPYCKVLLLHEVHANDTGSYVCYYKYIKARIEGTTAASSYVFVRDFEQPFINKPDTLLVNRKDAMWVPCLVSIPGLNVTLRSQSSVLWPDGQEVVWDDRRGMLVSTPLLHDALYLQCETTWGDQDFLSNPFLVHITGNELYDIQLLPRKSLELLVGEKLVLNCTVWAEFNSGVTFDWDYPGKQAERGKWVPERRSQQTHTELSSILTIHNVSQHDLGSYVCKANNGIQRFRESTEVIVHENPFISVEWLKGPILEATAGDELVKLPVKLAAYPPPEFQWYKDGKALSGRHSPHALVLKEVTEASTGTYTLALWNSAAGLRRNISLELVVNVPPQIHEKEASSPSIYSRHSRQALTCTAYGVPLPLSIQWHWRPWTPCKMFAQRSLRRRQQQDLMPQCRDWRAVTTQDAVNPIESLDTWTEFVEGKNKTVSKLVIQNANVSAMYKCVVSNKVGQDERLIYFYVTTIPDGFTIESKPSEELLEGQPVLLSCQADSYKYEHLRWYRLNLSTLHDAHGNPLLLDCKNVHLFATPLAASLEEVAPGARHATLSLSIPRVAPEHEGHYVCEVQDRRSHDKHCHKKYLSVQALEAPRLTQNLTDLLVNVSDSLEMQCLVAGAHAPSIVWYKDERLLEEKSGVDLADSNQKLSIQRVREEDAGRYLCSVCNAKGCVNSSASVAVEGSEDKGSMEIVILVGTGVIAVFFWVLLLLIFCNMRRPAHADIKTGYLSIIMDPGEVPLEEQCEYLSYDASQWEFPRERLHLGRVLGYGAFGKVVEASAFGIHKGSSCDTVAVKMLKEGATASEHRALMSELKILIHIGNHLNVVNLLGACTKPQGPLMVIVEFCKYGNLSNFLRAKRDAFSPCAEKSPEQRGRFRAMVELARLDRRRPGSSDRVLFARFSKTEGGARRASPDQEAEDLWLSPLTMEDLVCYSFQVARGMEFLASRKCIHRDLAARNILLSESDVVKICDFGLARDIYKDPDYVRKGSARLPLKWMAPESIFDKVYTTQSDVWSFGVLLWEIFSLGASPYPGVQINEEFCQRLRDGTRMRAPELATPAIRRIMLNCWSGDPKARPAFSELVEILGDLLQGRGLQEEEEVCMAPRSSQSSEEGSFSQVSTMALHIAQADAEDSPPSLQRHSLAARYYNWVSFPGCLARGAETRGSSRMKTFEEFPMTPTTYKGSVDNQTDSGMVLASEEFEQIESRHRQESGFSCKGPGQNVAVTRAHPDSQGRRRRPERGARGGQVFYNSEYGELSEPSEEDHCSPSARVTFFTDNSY
T1 sequence (P17948 27-1338): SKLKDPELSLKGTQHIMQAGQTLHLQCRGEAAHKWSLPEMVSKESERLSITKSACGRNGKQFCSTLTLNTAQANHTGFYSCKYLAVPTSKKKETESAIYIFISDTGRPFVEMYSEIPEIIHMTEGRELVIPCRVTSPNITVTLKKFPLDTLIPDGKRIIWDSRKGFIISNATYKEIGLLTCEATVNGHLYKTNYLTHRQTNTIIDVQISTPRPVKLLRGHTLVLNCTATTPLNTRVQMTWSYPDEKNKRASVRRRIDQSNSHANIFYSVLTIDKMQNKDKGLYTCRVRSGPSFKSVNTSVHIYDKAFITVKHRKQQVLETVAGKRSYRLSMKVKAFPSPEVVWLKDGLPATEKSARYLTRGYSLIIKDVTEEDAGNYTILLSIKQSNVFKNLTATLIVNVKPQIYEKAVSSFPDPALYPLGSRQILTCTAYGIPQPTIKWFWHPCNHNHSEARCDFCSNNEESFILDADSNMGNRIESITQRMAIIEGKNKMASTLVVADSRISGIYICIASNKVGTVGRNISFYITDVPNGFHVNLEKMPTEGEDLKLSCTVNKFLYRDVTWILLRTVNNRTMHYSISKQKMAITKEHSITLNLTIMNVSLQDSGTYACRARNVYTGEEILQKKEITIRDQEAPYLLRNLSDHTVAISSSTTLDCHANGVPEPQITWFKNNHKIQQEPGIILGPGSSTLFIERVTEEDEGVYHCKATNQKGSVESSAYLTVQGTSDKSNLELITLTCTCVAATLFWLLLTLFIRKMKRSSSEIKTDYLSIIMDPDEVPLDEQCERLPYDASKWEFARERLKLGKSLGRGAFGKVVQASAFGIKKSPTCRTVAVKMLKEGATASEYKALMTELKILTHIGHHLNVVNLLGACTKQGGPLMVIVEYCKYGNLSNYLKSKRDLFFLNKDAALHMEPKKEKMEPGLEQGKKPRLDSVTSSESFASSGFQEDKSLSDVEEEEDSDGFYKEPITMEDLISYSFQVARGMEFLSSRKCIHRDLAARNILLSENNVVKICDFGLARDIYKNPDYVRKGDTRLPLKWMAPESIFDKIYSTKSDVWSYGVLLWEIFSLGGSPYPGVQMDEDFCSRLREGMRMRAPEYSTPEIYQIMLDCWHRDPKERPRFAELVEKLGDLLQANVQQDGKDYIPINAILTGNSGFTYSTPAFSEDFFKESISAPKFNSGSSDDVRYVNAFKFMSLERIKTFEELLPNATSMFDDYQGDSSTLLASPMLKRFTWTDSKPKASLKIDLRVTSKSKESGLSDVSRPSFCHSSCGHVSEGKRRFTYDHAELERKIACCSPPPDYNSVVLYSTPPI

Row | SMILES | IC50 [1] [nM] | IC50 [2] [nM] | IC50 [3] [nM] | IC50 [4] [nM] | IC50 [5] [nM] | solubility at 8 h [6] [µg/mL]
1 | NC(=O)c1c(OCc2cc(C(=O)NC3CC3)ccc2F)nsc1NC(=O)NCCCCN1CCCC1 [Compound T087, 3-[[5-(cyclopropylcarbamoyl)-2-fluoro-phenyl]methoxy]-5-(4-pyrrolidin-1-ylbutylcarbamoylamino)isothiazole-4-carboxamide] | 1.11 | 0.8 | 1420 | 1.66 | 30 | 
2 | NC(=O)c1c(OCc2cc3c(cc2F)CCO3)nsc1NC(=O)NCCCCN1CC[C@@H](O)C1 [Compound T091, 3-[(5-fluoro-2,3-dihydrobenzofuran-6-yl)methoxy]-5-[4-[(3R)-3-hydroxypyrrolidin-1-yl]butylcarbamoylamino] isothiazole-4-carboxamide] | 5.87 | 6.72 |  | 3.03 | 87 | 
3 | CN1CCN(CCCNC(=O)Nc2snc(OCc3cc4c(cc3F)CCO4)c2C(N)=O)CC1 [Compound T101, 3-[(5-fluoro-2,3-dihydrobenzofuran-6-yl)methoxy]-5-[3-(4-methylpiperazin-1-yl)propylcarbamoylamino] isothiazole-4-carboxamide] |  |  | 163 | 4.85 | 103 | 
4 | NC(=O)c1c(OCc2cc(C(=O)NC3CC3)ccc2F)nsc1NC(=O)NCCCN1CC[C@H](F)C1 [Compound T116, 3-[[5-(cyclopropylcarbamoyl)-2-fluoro-phenyl]methoxy]-5-[3-[(3S)-3-fluoropyrrolidin-1-yl]propylcarbamoylamino]isothiazole-4-carboxamide] | 1.21 | 4.8 | 2360 | 1.14 | 61 | 1090 (≈ 2.08 mM)
5 | CN1CCN(CCCNC(=O)Nc2snc(OCc3cc(C(=O)NC4CC4)ccc3F)c2C(N)=O)CC1 [Compound T118, 3-[[5-(cyclopropylcarbamoyl)-2-fluoro-phenyl]methoxy]-5-[3-(4-methylpiperazin-1-yl)propylcarbamoylamino]isothiazole-4-carboxamide] |  |  |  | 1.15 | 48.2 | 2050 (≈ 3.85 mM)

The remaining lines, values ahead:

Row | IC50 [1] [nM] | IC50 [2] [nM] | IC50 [3] [nM] | IC50 [4] [nM] | IC50 [5] [nM] | solubility at 8 h [6] [µg/mL] | SMILES
6 |  |  | 973 | 0.63 | 0.78 |  | NC(=O)c1c(OCc2cc(C(=O)NC3CC3)ccc2Cl)nsc1NC(=O)NCCCCN1CCCC1 [Compound T123, 3-[[2-chloro-5-(cyclopropylcarbamoyl)phenyl]methoxy]-5-(4-pyrrolidin-1-ylbutylcarbamoylamino)isothiazole-4-carboxamide]
7 |  |  | 2890 | 2.2 | 16.2 | 1950 (≈ 3.63 mM) | NC(=O)c1c(OCc2c(F)ccc(C(=O)NC3CC3)c2F)nsc1NC(=O)NCCCCN1CCCC1 [Compound T124, 3-[[3-(cyclopropylcarbamoyl)-2,6-difluoro-phenyl]methoxy]-5-(4-pyrrolidin-1-ylbutylcarbamoylamino)isothiazole-4-carboxamide]
